According to US10912814B2, “Combination formulation of three antiviral compounds” (priority 2016, dated 2021):

What was measured:
[1] = test system: HCV RNA; experiment: Emax PK/PD modeling of sofosbuvir exposure vs HCV RNA change from baseline; format: in vivo; conditions: 400 mg sofosbuvir dose
Experimental: The sofosbuvir dose selected for the tablet formulation is 400 mg once daily. Support for the 400 mg sofosbuvir dose can be derived from Emax PK/PD modeling with early virological and human exposure data which also supports the selection of a 400 mg sofosbuvir dose over others tested.
The mean sofosbuvir major metabolite AUCtau for the 400 mg sofosbuvir dose is associated with approximately 77% of the maximal HCV RNA change from baseline achievable as determined by this model, a value which is on the cusp of the plateau of the exposure-response sigmoidal curve. In a sigmoidal Emax model, there is a relatively linear exposure-response relationship in the 20 to 80% maximal effect range. Therefore, given that sofosbuvir exposure with 200 mg tablets appears dose-proportional with single doses up to 1200 mg, doses below 400 mg are expected to yield considerable reductions in the magnitude of HCV RNA change from baseline.

[2] = Photostability (light exposure, ICH Q1B); format: physicochemical; conditions: for Total Imp./Deg. Products (%): tablets
Experimental: In some embodiments, and the Examples presented herein, the tablet formulation includes sofosbuvir having Form 6 and, optionally, a trace amount of Form 7.
Tablet cores and film-coated tablets were evaluated per ICH Q1B guidelines with a total of illumination of more than 1.2 million-lux hours and a total irradiance of more than 200 W·hr/m^2.

[3] = Tablet dissolution in 50 mM sodium acetate buffer pH 5.0 with 2.0% w/v Polysorbate 80 and 0.001% w/v BHT, 75 rpm, 900 mL, 37° C., USP Type II; format: physicochemical
Experimental: FIGS. 10-12 depict additional dissolution profiles for the sofosbuvir/velpatasvir SSD/voxilaprevir SSD tablets having the formulation described in Table 13 and which were used in phase 1, 2, and 3 clinical studies, where the dissolution testing was conducted at pH 5.0 acetate buffer containing 2.0% w/v polysorbate 80. Four batches of the sofosbuvir/velpatasvir SSD/voxilaprevir SSD tablets were tested, with Batch A manufactured at 100 kg and Batches B, C and D manufactured at 145 kg. All other aspects of the formulation and manufacturing process were otherwise equivalent. The four batches were packed in the same commercial configuration: 28 count, 100 mL HPDE bottle with 1 g silica gel desiccant canister and a polyester fiber coil. […] Moreover, for Batch A, the amount dissolved at 30 min remained between 98 and 100% for sofosbuvir, between 90 and 92% for velpatasvir SSD, and between 89 and 93% for voxilaprevir SSD. […] For Batch D, the amount dissolved at 30 min remained at 100% for sofosbuvir, between 90 and 91% for velpatasvir SSD, and between 89 and 91% for voxilaprevir SSD. Release of velpatasvir SSD and voxilaprevir SSD from the sofosbuvir/velpatasvir SSD/voxilaprevir SSD tablets associated with all four Batches was complete after 60 minutes.

[4] = BCS classification; format: physicochemical
[5] = Tablet dissolution in 50 mM sodium acetate buffer pH 5.0 with 2.0% w/v Polysorbate 80 and 0.001% w/v BHT, 75 rpm, 900 mL, 37° C., USP Type II; format: physicochemical; remark: listed apart in the source

CC(C)OC(=O)C(C)N[P@](=O)(OC[C@H]1O[C@@H](n2ccc(=O)[nH]c2=O)[C@](C)(F)[C@@H]1O)Oc1ccccc1 (stereo in doubt) [Sofosbuvir, (S)-isopropyl 2-(((S)-(((2R,3R,4R,5R)-5-(2,4-dioxo-3,4-dihydropyrimidin-1(2H)-yl)-4-fluoro-3-hydroxy-4-methyltetrahydrofuran-2-yl)methoxy)(phenoxy)phosphoryl)amino)propanoate]
fraction of the maximal HCV RNA change from baseline achievable (Emax model) associated with mean major metabolite AUCtau [1]: approximately 77% | level of degradation products ([2]; tablets film-coated to weight gains of 2.1 to 5.4%, ICH Q1B): 0.0% | Total Imp./Deg. Products (%) ([2]; film-coating 0% weight gain, Exposed to Light): 0.0% | Total Imp./Deg. Products (%) ([2]; film-coating 0% weight gain, Protected from Light): 0.0% | Total Imp./Deg. Products (%) ([2]; film-coating 2.1% weight gain, Exposed to Light): 0.0% | Total Imp./Deg. Products (%) ([2]; film-coating 2.1% weight gain, Protected from Light): 0.0% | Total Imp./Deg. Products (%) ([2]; film-coating 3.4% weight gain, Exposed to Light): 0.0% | Total Imp./Deg. Products (%) ([2]; film-coating 3.4% weight gain, Protected from Light): 0.0% | Total Imp./Deg. Products (%) ([2]; film-coating 4.1% weight gain, Exposed to Light): 0.0% | Total Imp./Deg. Products (%) ([2]; film-coating 4.1% weight gain, Protected from Light): 0.0% | Total Imp./Deg. Products (%) ([2]; film-coating 5.4% weight gain, Exposed to Light): 0.0% | Total Imp./Deg. Products (%) ([2]; film-coating 5.4% weight gain, Protected from Light): 0.0% | Dissolved at 30 min (%) ([3]; Batch C tablets, closed 1 g desiccant, 30° C./75% RH, 6 months): 99% | Dissolved at 30 min (%) ([3]; Batch C tablets, closed 1 g desiccant, 40° C./75% RH, 1 month): 100% | Dissolved at 30 min (%) ([3]; Batch C tablets, closed 1 g desiccant, Initial, time 0): 99% | Dissolved at 30 min (%) ([3]; tablets Batch A, 30° C./75% RH, 6 mo): 100% | Dissolved at 30 min (%) ([3]; tablets Batch A, 40° C./75% RH, 3 mo): 99% | Dissolved at 30 min (%) ([3]; tablets Batch A, Initial, 0 mo): 98% | Dissolved at 30 min (%) ([3]; tablets Batch B, 40° C./75% RH, 6 mo): 98% | amount dissolved at 30 min ([3]; tablets Batch D): 100% | Dissolved at 30 min (%) ([3]; tablets Batch D, 40° C./75% RH, 1 mo): 100% | aqueous solubility, pH dependence [4]: high and pH-independent aqueous solubility | Dissolved at 30 min (%) ([5]; Batch C tablets, closed 1 g desiccant, 25° C./60% RH, 6 months): 99% | Dissolved at 30 min (%) ([5]; Batch C tablets, closed 1 g desiccant, 30° C./75% RH, 3 months): 99% | Dissolved at 30 min (%) ([5]; Batch C tablets, closed 1 g desiccant, 40° C./75% RH, 3 months): 100% | Dissolved at 30 min (%) ([5]; Batch C tablets, closed 1 g desiccant, 40° C./75% RH, 6 months): 99% | Dissolved at 30 min (%) ([5]; Lot A tablets (super-potent VEL SSD, super-potent VOX SSD), Initial, time 0): 100% | Dissolved at 30 min (%) ([5]; Lot A tablets (super-potent VEL SSD, super-potent VOX SSD), closed, 1 g desiccant, 25° C./60% RH, 12 weeks): 99% | Dissolved at 30 min (%) ([5]; Lot A tablets (super-potent VEL SSD, super-potent VOX SSD), closed, 1 g desiccant, 40° C./75% RH, 12 weeks): 100% | Dissolved at 30 min (%) ([5]; Lot B tablets (sub-potent VEL SSD, sub-potent VOX SSD), Initial, time 0): 83% | Dissolved at 30 min (%) ([5]; Lot B tablets (sub-potent VEL SSD, sub-potent VOX SSD), closed, 1 g desiccant, 25° C./60% RH, 12 weeks): 82% | Dissolved at 30 min (%) ([5]; Lot B tablets (sub-potent VEL SSD, sub-potent VOX SSD), closed, 1 g desiccant, 40° C./75% RH, 4 weeks): 85% | Dissolved at 30 min (%) ([5]; Lot B tablets (sub-potent VEL SSD, sub-potent VOX SSD), closed, 1 g desiccant, 40° C./75% RH, 12 weeks): 84% | Dissolved at 30 min (%) ([5]; Lot B tablets (sub-potent VEL SSD, sub-potent VOX SSD), open, no cap, 40° C./75% RH, 4 weeks): 100% | Dissolved at 30 min (%) ([5]; Lot C tablets (sub-potent VEL SSD, super-potent VOX SSD), Initial, time 0): 99% | Dissolved at 30 min (%) ([5]; Lot C tablets (sub-potent VEL SSD, super-potent VOX SSD), closed, 1 g desiccant, 25° C./60% RH, 12 weeks): 98% | Dissolved at 30 min (%) ([5]; Lot C tablets (sub-potent VEL SSD, super-potent VOX SSD), closed, 1 g desiccant, 40° C./75% RH, 4 weeks): 100% | Dissolved at 30 min (%) ([5]; Lot C tablets (sub-potent VEL SSD, super-potent VOX SSD), closed, 1 g desiccant, 40° C./75% RH, 12 weeks): 98% | Dissolved at 30 min (%) ([5]; Lot C tablets (sub-potent VEL SSD, super-potent VOX SSD), open, no cap, 40° C./75% RH, 4 weeks): 99% | Dissolved at 30 min (%) ([5]; Lot D tablets (super-potent VEL SSD, sub-potent VOX SSD), closed, 1 g desiccant, 25° C./60% RH, 12 weeks): 98% | Dissolved at 30 min (%) ([5]; Lot D tablets (super-potent VEL SSD, sub-potent VOX SSD), closed, 1 g desiccant, 40° C./75% RH, 4 weeks): 98% | Dissolved at 30 min (%) ([5]; Lot D tablets (super-potent VEL SSD, sub-potent VOX SSD), closed, 1 g desiccant, 40° C./75% RH, 12 weeks): 98% | Dissolved at 30 min (%) ([5]; Lot D tablets (super-potent VEL SSD, sub-potent VOX SSD), open, no cap, 40° C./75% RH, 4 weeks): 99% | dissolution at 30 minutes ([5]; SSD potency tablets Lot B, after 4 weeks open at 40° C./75% RH): 100% | released at 30 minutes ([5]; tablet Lots A and B made with different sofosbuvir particle size distributions): 101% | Dissolved at 30 min (%) ([5]; tablets Batch A, 25° C./60% RH, 3 mo): 98% | Dissolved at 30 min (%) ([5]; tablets Batch A, 25° C./60% RH, 6 mo): 98% | Dissolved at 30 min (%) ([5]; tablets Batch A, 30° C./75% RH, 3 mo): 98% | Dissolved at 30 min (%) ([5]; tablets Batch A, 40° C./75% RH, 1 mo): 98% | Dissolved at 30 min (%) ([5]; tablets Batch A, 40° C./75% RH, 6 mo): 100% | Dissolved at 30 min (%) ([5]; tablets Batch B, 25° C./60% RH, 3 mo): 99% | Dissolved at 30 min (%) ([5]; tablets Batch B, 25° C./60% RH, 6 mo): 99% | Dissolved at 30 min (%) ([5]; tablets Batch B, 30° C./75% RH, 3 mo): 99% | Dissolved at 30 min (%) ([5]; tablets Batch B, 30° C./75% RH, 6 mo): 99% | Dissolved at 30 min (%) ([5]; tablets Batch B, 40° C./75% RH, 1 mo): 100% | Dissolved at 30 min (%) ([5]; tablets Batch B, 40° C./75% RH, 3 mo): 100% | Dissolved at 30 min (%) ([5]; tablets Batch B, Initial, 0 mo): 99% | Dissolved at 30 min (%) ([5]; tablets Batch D, Initial, 0 mo): 100% | Dissolved at 30 min (%) ([5]; tablets from VEL SSD 7.0% / VOX SSD 3.2% water content, Initial, time 0): 100% | Dissolved at 30 min (%) ([5]; tablets from VEL SSD 7.0% / VOX SSD 3.2% water content, closed, 1 g desiccant, 25° C./60% RH, 12 weeks): 98% | Dissolved at 30 min (%) ([5]; tablets from VEL SSD 7.0% / VOX SSD 3.2% water content, closed, 1 g desiccant, 40° C./75% RH, 12 weeks): 99% | Dissolved at 30 min (%) ([5]; tablets from VEL SSD 7.0% / VOX SSD 3.2% water content, open, no desiccant, 40° C./75% RH, 4 weeks): 100% | Dissolved at 30 min (%) ([5]; tablets from copovidone with 544 ppm (VEL SSD) / 655 ppm (VOX SSD) peroxides, Initial, time 0): 99% | Dissolved at 30 min (%) ([5]; tablets from copovidone with 544 ppm (VEL SSD) / 655 ppm (VOX SSD) peroxides, closed, 1 g desiccant, 25° C./60% RH, 12 weeks): 99% | Dissolved at 30 min (%) ([5]; tablets from copovidone with 544 ppm (VEL SSD) / 655 ppm (VOX SSD) peroxides, closed, 1 g desiccant, 40° C./75% RH, 4 weeks): 99% | Dissolved at 30 min (%) ([5]; tablets from copovidone with 544 ppm (VEL SSD) / 655 ppm (VOX SSD) peroxides, closed, 1 g desiccant, 40° C./75% RH, 12 weeks): 99% | Dissolved at 30 min (%) ([5]; tablets from copovidone with 544 ppm (VEL SSD) / 655 ppm (VOX SSD) peroxides, open, no desiccant, 40° C./75% RH, 4 weeks): 100% | Dissolved at 30 min (%) ([5]; tablets, desiccant study, closed, 1 g desiccant, 40° C./75% RH, 4 weeks): 99% | Dissolved at 30 min (%) ([5]; tablets, desiccant study, closed, 1 g desiccant, 40° C./75% RH, 12 weeks): 99% | Dissolved at 30 min (%) ([5]; tablets, desiccant study, closed, 1 g desiccant, 40° C./75% RH, 24 weeks): 100% | Dissolved at 30 min (%) ([5]; tablets, desiccant study, closed, no desiccant, 25° C./60% RH, 12 weeks): 99% | Dissolved at 30 min (%) ([5]; tablets, desiccant study, closed, no desiccant, 40° C./75% RH, 12 weeks): 99%
